Test results published in PubChem BioAssay (NCI).
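96-well plates; 48 h exposure; 5 concentrations. Endpoints by linear interpolation between flanking doses. Not reached: highest tested concentration assigned. At the TGI there is no net growth.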

How the values were obtained:
Assay in all cases: NCI tumour cell line growth inhibition, 48 h
786-0 renal = tested on: 786-0 renal
ACHN renal = tested on: ACHN renal
CAKI-1 renal = tested on: CAKI-1 renal
HCT-116 colon = tested on: HCT-116 colon
HOP-92 NSCLC = tested on: HOP-92 NSCLC
K-562 leukemia = tested on: K-562 leukemia
KM12 colon = tested on: KM12 colon
MALME-3M melanoma = tested on: MALME-3M melanoma
RPMI-8226 leukemia = tested on: RPMI-8226 leukemia
OVCAR-3 ovarian = tested on: OVCAR-3 ovarian

Compound | TGI (786-0 renal) [µM] | TGI (ACHN renal) [µM] | TGI (CAKI-1 renal) [µM] | TGI (HCT-116 colon) [µM] | TGI (HOP-92 NSCLC) [µM] | TGI (K-562 leukemia) [µM] | TGI (KM12 colon) [µM] | TGI (MALME-3M melanoma) [µM] | TGI (RPMI-8226 leukemia) [µM] | TGI (OVCAR-3 ovarian) [µM]
c1ccc(C(CCN2CCCC2)c2ccccn2)cc1 (stereo not drawn) | > 100 | > 100 | > 100 | > 100 | > 100 | > 100 | > 100 | > 100 | > 100 | 
COc1ccc(C2C(C(=O)O)=C(COC(C)=O)Oc3cc4c(cc32)OCO4)cc1 (stereo not drawn) |  | > 100 | > 100 | > 100 | > 100 | > 100 |  | > 100 | > 100 | > 100
Cc1ccc(NC(=O)c2cccc([N+](=O)[O-])c2O)c(C)c1 |  | 89.5 | 79.8 | > 100 |  | > 100 | > 100 | 17.9 | 92.7 | > 100
C/C=C/C=C/C1=NN(c2cccc(S(=O)(=O)O)c2)C2(C1)SCC(=O)N2c1nc2ccccc2s1 (stereo not drawn) | 42.3 | > 100 | > 100 | > 100 | > 100 | > 100 | > 100 | > 100 | > 100 | 
CC[C@@]1(O)C(=O)OCc2c1cc1n(c2=O)Cc2c-1nc1ccccc1c2/C=N\NC(=O)C(N)CS (stereo partly drawn) | > 100 |  | > 91.3 | > 100 | > 57.1 | > 100 | > 100 | > 100 | > 100 | > 100
c1ccc(C(=NNc2nc3ccccc3[nH]2)c2ccccn2)nc1 | > 100 | 0.698 | 2.07 | 10.2 | 0.182 | > 100 | > 80.3 |  | 1.02 | > 100
O=C1c2ccccc2C2(c3ccc(Cl)cc3)NCc3ccccc3CN12 (stereo not drawn) | 26.4 | 51.6 | > 100 | 22.6 | 56 | > 100 | 44.2 |  | 75.2 | 26.6
c1ccc([C@H]2CN3CCSC3=N2)cc1 | > 100 | > 100 | > 100 | > 100 | > 100 | > 100 | > 100 | > 100 |  | > 100
Cc1ccc(S(=O)(=O)n2cc(-c3cnc(N)c(Br)n3)c3ccccc32)cc1 | > 23.3 | > 89.4 | > 100 |  | > 27.5 | > 100 | > 40.1 |  | 49.6 | > 45.7
NCCCCNCCCN | > 100 | > 100 | 3.1 | > 100 | > 100 | > 100 | > 100 | > 100 |  | > 100
O=C(CCc1cc(O)cc(O)c1)NCCc1ccc(O)c(O)c1 | > 100 | > 100 | > 100 | > 100 | > 100 |  | > 100 |  | > 100 | > 100
O=c1[nH]c(=O)n(C2CC(O)C(CO)O2)cc1NN=NCc1ccccc1 (stereo not drawn) | > 100 | > 100 | > 100 | > 100 |  | > 100 | > 100 | > 100 |  | > 100
